These results are taken from patent publication US12064408B2, “Compounds for the treatment of obesity and methods of use thereof” (The Children's Medical Center Corporation, priority 2012, dated 2024).

In data set [1] the test system is HFD-fed obese mice. The data set can be described thus: Liver and kidney histology (H&E). The class given is in vivo. The following applies: three weeks 100 μg/kg i.p.
Data set [2] has as its system alanine transaminase (ALT). The data set can be described thus: Serum ALT by ELISA. The class given is in vivo. Particulars: three weeks 100 μg/kg i.p., HFD-fed obese mice. The protocol:
(§1) To investigate the effect of celastrol administration on liver function, serum levels of alanine transaminase (ALT) and aspartate transaminase (AST) were measured in mice following three weeks of celastrol treatment (100 μg/kg, i.p.). ALT and AST were measured using an enzyme-linked immunosorbent assay (ELISA) kit (from Bio Scientific).
For orientation: ELISA stands for enzyme-linked immunosorbent assay.

The next data set deals with mice. The data set can be described thus: Locomotor activity (Columbus Instruments Comprehensive Lab Animal Monitoring System). The class given is in vivo. Here is the method:
Locomotor activity was also normal in celastrol-treated mice. This is consistent with celastrol not having a toxic effect causing anorexia and weight loss, since the latter would be associated with decreased locomotor activity.
FIGS. 16A and 16B are graphs showing x (FIG. 16A) and y (FIG. 16B) direction ambulatory motion for control and celastrol in dark and light cycles. Toxicity was evaluated using Columbus Instruments Comprehensive Lab Animal Monitoring System we have measure the locomotor activity of the animals.

For data set [3], the system named is aspartate transaminase (AST). The data set can be described thus: Serum AST by ELISA. The class given is in vivo. The following applies: three weeks 100 μg/kg i.p., HFD-fed obese mice. Here is the method:
as §1

The conditions of data set [4]: weight loss products; Sources: FDA 2010, Natural Medicines Comprehensive Database 2010; cited from earlier work.
Data set [5] has as its system HFD-fed obese mice. The data set can be described thus: Leptin injection upon acute celastrol treatment, HFD-fed obese mice. The data set is classed as in vivo. Here is the method:
(§2) It was therefore hypothesized that celastrol exerts anti-obesity effects through increasing leptin sensitivity in the brains of the HFD-fed obese mice. To test this hypothesis, leptin was administered to celastrol- or vehicle-treated HFD-fed obese animals. To avoid any possible leptin sensitizing effect of weight loss or decreased food intake created by celastrol administration, leptin injections were carried out upon acute celastrol treatment as described below.
(§3) Lean and HFD-fed obese mice were divided into four groups: 1) DMSO+saline, 2) DMSO+leptin, 3) celastrol+saline, and 4) celastrol+leptin (n=3 per group). Mice were injected (ip) with 100 μg/kg celastrol or vehicle (DMSO) one hour before dark cycle (day zero). 24 hours later, mice were injected for a second time with celastrol or DMSO (day 1), and all animals were then taken to 24 hour-fasting. On day two, at 21 hours of fasting, mice received a final injection of DMSO or celastrol. 30 minutes prior to dark cycle, at 23.5 hour of fasting, mice received a single ip injection of leptin (10 mg/kg, dissolved in saline), or saline. […] 1, 3, 6, 15, and 24-hour food intake and 24-hour body weight changes were recorded (FIG. 7A). […] This is clearly evident when food intake of the celastrol-treated mice is calculated in percent values (FIG. 7B). […]

Another data set concerns lean mice. The data set can be described thus: Leptin injection upon acute celastrol treatment, lean mice. The class given is in vivo. The following applies: 6-hour time point, leptin 10 mg/kg ip, DMSO or celastrol 100 μg/kg ip pre-treatment. Here is the method:
as §2, §3

Regarding `CC1=C(O)C(=O)C=C2C1=CC=C1[C@@]2(C)CC[C@@]2(C)[C@@H]3C[C@](C)(C(=O)O)CC[C@]3(C)CC[C@]12C` [celastrol], the kidney morphology result with HFD-fed obese mice [1] is “no detectable change”. Further, the ALT levels result in data set [2] was “decreases”. Further, in the data set on mice (celastrol-treated mice), the locomotor activity result was “normal”. Also, the “x and y direction ambulatory motion counts” value in the data set with mice (dark and light cycles, versus control) is “not significantly different”. Moreover, in the data set on mice (drug treated mice), the “visible sign of sickness and toxicity” value is listed as “do not show any visible sign”. Also, the AST levels entry in data set [3] is reported as “decreases”.

With “Conjugated linoleic acid [Conjugated linoleic acid (CLA)]”, the Safety entry in data set [4] is listed as “Possibly safe”.

In the case of `[Cr]` [Chromium], the Safety entry in data set [4] is “Likely safe”.

B1: leptin: peptide hormone regulating food intake and body weight; injected ip dissolved in saline (protein, UniProt P41160 22-167, looked up)
Leptin: VPIQKVQDDTKTLIKTIVTRINDISHTQSVSAKQRVTGLDFIPGLHPILSLSKMDQTLAVYQQVLTSLPSQNVLQIANDLENLRDLLHLLAFSKSCSLPQTSGLQKPESLDGVLEASLYSTEVVALSRLQGSLQDILQQLDVSPEC
As for B1, the “decrease in food intake upon leptin injection” value in the data set on HFD-fed obese mice [5] (6-hour time point, leptin 10 mg/kg ip, DMSO or celastrol 100 μg/kg ip pre-treatment) is “approximately 40%”; in the data set on lean mice, “approximately 40%”. In the data set on HFD-fed obese mice [5] (24 hour ad libitum feeding period after 24-hour fasting), the “24-hour body weight change” value was “resistant”.
